Data as given in PubChem BioAssay (NCI).
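Compound exposure: 48 hours, 5 concentrations, 96-well plates. Abbreviation: GI50, concentration required for 50% inhibition of growth. TGI marks complete inhibition of growth.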

Experiments:
Experiment in all cases: DTP human tumour cell line panel, 48 h
CAKI-1 renal = test system: CAKI-1 renal
COLO 205 colon = test system: COLO 205 colon
SK-MEL-5 melanoma = test system: SK-MEL-5 melanoma
PC-3 prostate = test system: PC-3 prostate
UO-31 renal = test system: UO-31 renal
SNB-19 CNS = test system: SNB-19 CNS
NCI-H522 lung = test system: NCI-H522 lung
SF-539 CNS = test system: SF-539 CNS
T-47D breast = test system: T-47D breast
MOLT-4 leukemia = test system: MOLT-4 leukemia

Compound	GI50 (CAKI-1 renal) [µM]	TGI (CAKI-1 renal) [µM]	GI50 (COLO 205 colon) [µM]	TGI (COLO 205 colon) [µM]	GI50 (SK-MEL-5 melanoma) [µM]	TGI (SK-MEL-5 melanoma) [µM]	GI50 (PC-3 prostate) [µM]	TGI (PC-3 prostate) [µM]	GI50 (UO-31 renal) [µM]	TGI (UO-31 renal) [µM]	GI50 (SNB-19 CNS) [µM]	TGI (SNB-19 CNS) [µM]	GI50 (NCI-H522 lung) [µM]	TGI (NCI-H522 lung) [µM]	GI50 (SF-539 CNS) [µM]	TGI (SF-539 CNS) [µM]	GI50 (T-47D breast) [µM]	TGI (T-47D breast) [µM]	GI50 (MOLT-4 leukemia) [µM]	TGI (MOLT-4 leukemia) [µM]
Cc1ccc(NC(=O)Nc2c(Cl)cccc2Cl)cn1	5.78	> 100	3.61	24.3	5.06	> 100	25.2	> 100	47	> 100	26.1	> 100	12.5	44	5.24	> 100	13.9	> 100	6.38	32.4
CCN(CC)CCN1C(=O)C2C3C(=O)CC(C)(CC3C)C2C1=O (stereo not drawn)	> 100	> 100	> 100	> 100	> 100	> 100	> 100	> 100	> 100	> 100	> 100	> 100	> 100	> 100	> 100	> 100	> 100	> 100	> 100	> 100
NC1=NC(=O)/C(=C/c2ccc3ncccc3c2)S1	> 25	> 25	> 25	> 25	> 25	> 25	> 25	> 25	> 25	> 25	> 25	> 25	> 18.4	> 25	> 25	> 25	> 15.6	> 25	> 25	> 25
COc1cccc(C2=C(c3cn(C)c4cc(F)ccc34)C(=O)NC2=O)c1	> 13.4	> 25	10.9	> 25	11	> 21	12.5	> 25	9.19	> 25	> 25	> 25	> 15.9	> 25	> 25	> 25	15.3	> 25	11.1	> 25
CC(c1ccccc1)[C@@H](C(=O)Nc1ccc(I)cc1F)N1C(=O)N[C@H](c2ccc(OC[C@H](O)CO)cc2)C1=O (stereo partly drawn)	16.2	> 25	0.0368	> 25	0.85	> 25	> 15.4	> 25	9.91	> 25	6.63	> 25	> 17.8	> 25	15.5	> 25	10.2	> 25	12.5	> 25
CN(C)C=NC1CCC(C(C)(C)C)CC1 (stereo not drawn)		33.1		33.2		31		30.3		30.8		39.9		31.8		31.8		37.5		32.2
CCCCCCCCCC(CCCC(O)CC(=O)O)OC1OC(COC2OC(C)C(OC(C)=O)C(O)C2O)C(O)C(O)C1OC1OC(CO)C(O)C(O)C1OC1OC(C)C(OC(=O)CC(C)C)C(O)C1O (stereo not drawn)	> 35	> 35	> 35	> 35	> 35	> 35	> 35	> 35	> 35	> 35	> 35	> 35	> 35	> 35	> 35	> 35	> 35	> 35	> 35	> 35
COc1ccc(C(=O)O[C@H]2[C@H](O[C@H]3[C@@H](O)COC(O[C@H]4C[C@H]5[C@@H]6CC=C7C[C@@H](O)CC[C@]7(C)[C@H]6CC[C@]5(C)[C@H]4[C@H](C)C(=O)CCC(C)C)[C@@H]3OC(C)=O)OC[C@@H](O)[C@@H]2O)c(C)c1 (stereo partly drawn)	< 0.01	1.08	0.0178	0.133	< 0.01	0.0141	< 0.01	2.14	< 0.01	0.0335	< 0.01	10.3	0.0114	0.607	< 0.01	< 0.01	0.0133	19.1	< 0.01	11.2
O=Cc1c(-c2ccccc2)[nH]c2ccccc2c1=O		> 100		82.3		53.9		> 100		> 100		> 100		> 100		> 100		> 100		> 100
C[C@@H](NC(=O)c1ncnc(N)c1Cl)c1ncc(C(=O)Nc2cc(C(F)(F)F)c(Cl)cn2)s1	25.4	71.6	0.616	24.3	8.91	24.1	25.3	> 76.6	8.98	44.4	26.6	> 100	13.5	34.3	20.3	> 78.4	24.2	> 83.8	23	68.7
CCOc1ccc2c(c1)CN(Cc1ccc(Cl)cc1)CO2	16.3	43.2	19	36.1	15.2	28.9	27.9	> 100	8.82	43.8	24.6	> 100	15.9	34	15.8	32.4	17.8	52.7	19.3	67.5
COc1ccc(Cn2cc3c(c2)-c2oncc2CC3)cc1OC	0.193	> 31.3	0.134	0.346	0.229	1.7	0.395	> 50	0.272	23.8	0.258	> 50	0.146	0.677	0.14	0.559	0.267	> 19.3	0.274	> 12.2
ClCc1ccc(Cn2cnc3c(Cl)ncnc32)cc1	2.26	8.78	13.7	> 100	11.7	35.9	18	56.3		> 21.5	16.9	43.3	11.5	75.7	10.9	29.2		> 100	11.8	> 56.2
